Where two headings read alike, the source gives them in different places.
What was measured:
[1] = In vivo pharmacokinetics, oral, female CD-1 mice; conditions: for AUC(0-inf) / CL/F: female, CD-1, mouse, po
CYP2D6 = CYP2D6 (Homo sapiens, UniProt P10635); experiment: CYP inhibition in human liver microsomes, CYP2D6; format: in vitro ADME; conditions: 20 minutes at 37 °C, two concentrations
[2] = Liver microsomal stability, human; format: in vitro ADME; conditions: both, pH 7.4
[3] = Liver microsomal stability, mouse; format: in vitro ADME; conditions: female, CD9, mouse, mouse liver microsomes, pH 7.4
[4] = Parallel Artificial membrane Permeability Assay; format: in vitro ADME; conditions: triplicate
P. berghei (NK-65) = experiment: Oral efficacy in P. berghei; conditions: 100 and 200 mg/kg oral on days 3, 4, 5
P. falciparum K1 = P. falciparum K1 growth inhibition; format: cell-based; conditions: Plasmodium falciparum, K1, 72 h, read-out: K1 EC50
P. falciparum 3D7 = P. falciparum 3D7 growth inhibition; format: cell-based; conditions: Plasmodium falciparum, 3D7, 72 h, read-out: 3D7 EC50
Kir6.2/SUR2A = conditions: read-out: Kir6.2 IC50; cited from earlier work
Nav1.5 = conditions: cited from earlier work
[5] = human liver microsomes (pooled)

Chain of CYP2D6 (P10635 whole entry): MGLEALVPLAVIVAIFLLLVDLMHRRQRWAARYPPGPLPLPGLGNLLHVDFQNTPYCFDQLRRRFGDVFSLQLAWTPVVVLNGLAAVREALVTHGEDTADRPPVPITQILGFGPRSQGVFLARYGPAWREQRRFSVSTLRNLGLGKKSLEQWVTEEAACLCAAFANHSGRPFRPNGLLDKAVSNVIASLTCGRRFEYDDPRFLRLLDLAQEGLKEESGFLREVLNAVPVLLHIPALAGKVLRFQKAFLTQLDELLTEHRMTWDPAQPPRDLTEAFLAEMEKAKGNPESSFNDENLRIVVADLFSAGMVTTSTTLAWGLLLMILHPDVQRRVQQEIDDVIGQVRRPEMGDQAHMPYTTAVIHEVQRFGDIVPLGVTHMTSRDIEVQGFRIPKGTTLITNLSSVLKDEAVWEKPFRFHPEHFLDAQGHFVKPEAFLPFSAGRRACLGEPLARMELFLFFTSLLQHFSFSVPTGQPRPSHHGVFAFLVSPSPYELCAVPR

SMILES	AUC(0-inf) ([1]; plasma, 20 mg/kg)	CL/F ([1]; plasma, 20 mg/kg)	AUC(0-inf) ([1]; plasma, 200 mg/kg)	CL/F ([1]; plasma, 200 mg/kg)	CYP2D6 inhibition (CYP2D6)	CLint scaled at 2000 µM [2, 5]	CLint scaled at 2000 µM [3]	Avg. Pe (PAMPA permeability) [4]	AUC(0-inf) ([1]; plasma, 500 mg/kg)	CL/F ([1]; plasma, 500 mg/kg)	overall in vivo efficacy (P. berghei (NK-65))	IC50 (Kir6.2/SUR2A)	AUC(0-inf) ([1]; in vivo, 200 mg/kg)	CL/F ([1]; in vivo, 200 mg/kg)	other results
O=C(CCc1ccccc1)c1cc(F)ccc1OCC(O)CN1CCC(c2ccccc2)CC1 (stereo not shown) [Compound 5]	1.6 µM·h	421 mL/min/kg	3.75 µM·h	1790 mL/min/kg	weak CYP2D6 inhibitors	19 ± 1 mL/min/kg	29 ± 2 mL/min/kg	und^a	–	–	–	–	–	–	increase in Cmax with increasing dose from 20 mg/kg to 200 mg/kg ([1]; oral, female CD-1 mice): 2 fold
O=C(CCc1ccc(F)cc1)c1ccccc1OCC(O)CN1CCN(C(c2ccccc2)c2ccccc2)CC1 (stereo not shown) [Compound 3]	0.298 µM·h	1900 mL/min/kg	5.67 µM·h	1000 mL/min/kg	–	13 ± 1 mL/min/kg	43 ± 3 mL/min/kg	und^a	4.08 µM·h	3480 mL/min/kg	–	–	–	–	–
O=C(CCc1ccccc1)c1ccccc1OCC(O)CN1CCN(C(c2ccccc2)c2ccccc2)CC1 (stereo not shown) [Compound 1]	0.249 µM·h	2350 mL/min/kg	3.1 µM·h	1890 mL/min/kg	–	14 ± 1 mL/min/kg	–	–	3.37 µM·h	4340 mL/min/kg	not significantly better than that of the negative controls	–	–	–	EC50 (P. falciparum K1): 0.1 ± 0.05 µM; EC50 (P. falciparum 3D7): 0.06 ± 0.01 µM
O=C(CCc1ccccc1)c1cc(F)ccc1OCC(O)CN1CCN(C(c2ccccc2)c2ccccc2)CC1 (stereo not shown) [Compound 2]	–	–	6.17 µM·h	920 mL/min/kg	–	–	–	–	–	–	–	> 5 µM	–	–	CLint scaled at 2000 µM ([2]; microsomes): 5 ± 2 mL/min/kg
Cc1ccc(N2CCN(CC(O)COc3ccccc3C(=O)CCc3ccccc3)CC2)cc1 (stereo not shown) [Compound 6]	–	–	–	–	–	–	30 ± 6 mL/min/kg	und^a	–	–	–	> 5 µM	6.49 µM·h	1000 mL/min/kg	IC50 (Nav1.5): > 5 µM
O=C(CCc1ccccc1)c1ccccc1OCC(O)CN1CCC(c2ccccc2)CC1 (stereo not shown) [Compound 4]	–	–	–	–	weak CYP2D6 inhibitors	11 ± 1 mL/min/kg	27 ± 2 mL/min/kg	–	–	–	some efficacy in suppressing parasitemia and life extension, but did not provide durable cures	> 5 µM	6.8 µM·h	1020 mL/min/kg	improvement in AUCinf over compound 1 ([1]; 500 mg/kg oral, female CD-1 mice): approximately 5 fold; AUC(0-inf) ([1]; in vivo, 20 mg/kg): 0.224 µM·h; CL/F ([1]; in vivo, 20 mg/kg): 3110 mL/min/kg; AUC(0-inf) ([1]; in vivo, 500 mg/kg): 15.3 µM·h; CL/F ([1]; in vivo, 500 mg/kg): 1140 mL/min/kg; IC50 (Nav1.5; read-out: Nav1.5 phasic IC50, phasic): > 5 µM; IC50 (Nav1.5; read-out: Nav1.5 tonic IC50, tonic): > 5 µM
